Laboratory results published in ChEMBL document CHEMBL3102856, “The marine cyanobacterial metabolite gallinamide A is a potent and selective inhibitor of human cathepsin L” (J Nat Prod, 2014).
Activity calls are given as the source filed them. No cut-off for these calls is given here.

Tests used:
Procathepsin L [1] = biological target: T1, Procathepsin L (Homo sapiens, UniProt P07711); assay: Irreversible inhibition of recombinant human Cathepsin L using Z-Phe-Arg-aminomethylcoumarin as substrate assessed as residual activity at 10 fold IC50 preincubated for 30 mins followed by 100 fold dilution measured for 2 hrs by fluorescence assay
Target sequence in this assay (P07711 114-333 limits assumed): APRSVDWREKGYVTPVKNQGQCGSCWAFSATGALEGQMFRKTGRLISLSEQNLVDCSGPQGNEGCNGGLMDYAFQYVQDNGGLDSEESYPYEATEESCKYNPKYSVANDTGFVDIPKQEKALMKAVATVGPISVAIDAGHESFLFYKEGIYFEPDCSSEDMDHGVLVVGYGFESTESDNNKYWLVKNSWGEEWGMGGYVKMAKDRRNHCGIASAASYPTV

Procathepsin L [2] = biological target: T1, Procathepsin L; assay: Irreversible inhibition of recombinant human cathepsin L using Z-Phe-Arg-aminomethylcoumarin as substrate
Target sequence in this assay (P07711 whole entry): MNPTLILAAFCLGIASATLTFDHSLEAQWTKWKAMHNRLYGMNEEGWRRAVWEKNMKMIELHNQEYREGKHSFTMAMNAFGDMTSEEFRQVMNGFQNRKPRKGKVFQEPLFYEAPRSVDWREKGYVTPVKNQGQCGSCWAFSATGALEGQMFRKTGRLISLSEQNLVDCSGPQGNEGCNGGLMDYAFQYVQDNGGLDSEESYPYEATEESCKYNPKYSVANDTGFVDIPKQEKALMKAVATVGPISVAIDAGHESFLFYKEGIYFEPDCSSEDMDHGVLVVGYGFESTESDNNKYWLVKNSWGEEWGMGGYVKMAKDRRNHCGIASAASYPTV

Homo sapiens [3] = species: Homo sapiens; assay: Selectivity index, ratio of IC50 for human Cathepsin B to IC50 for recombinant human Cathepsin L after 30 mins using Z-Phe-Arg-aminomethylcoumarin as substrate preincubated for 30 mins followed by substrate addition
Homo sapiens [4] = species: Homo sapiens; assay: Selectivity index, ratio of IC50 for human Cathepsin B to IC50 for recombinant human Cathepsin L using Z-Phe-Arg-aminomethylcoumarin as substrate
Homo sapiens [5] = species: Homo sapiens; assay: Selectivity index, ratio of IC50 for human Cathepsin V to IC50 for recombinant human Cathepsin L using Z-Phe-Arg-aminomethylcoumarin as substrate preincubated for 30 mins followed by substrate addition
Homo sapiens [6] = species: Homo sapiens; assay: Selectivity index, ratio of IC50 for human Cathepsin V to IC50 for recombinant human Cathepsin L using Z-Phe-Arg-aminomethylcoumarin as substrate
Pro-cathepsin H [7] = biological target: T2, Pro-cathepsin H (Homo sapiens, UniProt P09668); assay: Inhibition of human Cathepsin H using Arg-aminomethylcoumarin as substrate preincubated for 30 mins followed by substrate addition
T2 sequence (P09668 whole entry): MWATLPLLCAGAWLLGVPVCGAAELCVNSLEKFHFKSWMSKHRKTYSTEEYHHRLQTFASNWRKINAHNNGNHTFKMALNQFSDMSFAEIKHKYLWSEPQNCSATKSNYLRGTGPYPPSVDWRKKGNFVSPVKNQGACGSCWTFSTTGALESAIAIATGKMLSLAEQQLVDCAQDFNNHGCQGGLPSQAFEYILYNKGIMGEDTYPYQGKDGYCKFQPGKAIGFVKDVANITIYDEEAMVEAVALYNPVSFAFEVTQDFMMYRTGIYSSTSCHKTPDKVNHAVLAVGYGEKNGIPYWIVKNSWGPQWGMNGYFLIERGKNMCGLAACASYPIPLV

Pro-cathepsin H [8] = biological target: T2, Pro-cathepsin H; assay: Inhibition of human Cathepsin H using Arg-aminomethylcoumarin as substrate
Cathepsin B [9] = biological target: T3, Cathepsin B (Homo sapiens, UniProt P07858); assay: Inhibition of human Cathepsin B using Z-Phe-Arg-aminomethylcoumarin as substrate preincubated for 30 mins followed by substrate addition
Cathepsin B [10] = biological target: T3, Cathepsin B; assay: Inhibition of human Cathepsin B using Z-Phe-Arg-aminomethylcoumarin as substrate
Cathepsin L2 [11] = biological target: T4, Cathepsin L2 (Homo sapiens, UniProt O60911); assay: Inhibition of human Cathepsin V using Z-Phe-Arg-aminomethylcoumarin as substrate preincubated for 30 mins followed by substrate addition
T4 sequence (O60911 whole entry): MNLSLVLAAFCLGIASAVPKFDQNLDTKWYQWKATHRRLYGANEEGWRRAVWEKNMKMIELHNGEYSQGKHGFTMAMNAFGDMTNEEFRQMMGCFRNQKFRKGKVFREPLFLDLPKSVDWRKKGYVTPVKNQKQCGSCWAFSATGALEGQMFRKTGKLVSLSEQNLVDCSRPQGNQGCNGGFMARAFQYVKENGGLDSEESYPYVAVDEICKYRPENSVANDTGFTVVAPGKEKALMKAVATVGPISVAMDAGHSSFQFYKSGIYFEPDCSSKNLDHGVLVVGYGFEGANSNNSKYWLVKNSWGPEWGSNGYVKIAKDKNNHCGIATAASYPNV

Cathepsin L2 [12] = biological target: T4, Cathepsin L2; assay: Inhibition of human Cathepsin V using Z-Phe-Arg-aminomethylcoumarin as substrate
Procathepsin L [13] = biological target: T1, Procathepsin L; assay: Inhibition of recombinant human Cathepsin L using Z-Phe-Arg-aminomethylcoumarin as substrate preincubated for 30 mins followed by substrate addition
Target sequence in this assay (P07711 whole entry): as the sequence (P07711 whole entry) above

Procathepsin L [14] = biological target: T1, Procathepsin L; assay: Inhibition of recombinant human Cathepsin L using Z-Phe-Arg-aminomethylcoumarin as substrate
Procathepsin L [15] = biological target: T1, Procathepsin L; assay: Inhibition of recombinant human Cathepsin L assessed as inhibition of activity-based probe DCG-04 labelling preincubated for 30 mins followed by DCG-04 addition measured after 30 mins
Target sequence in this assay (P07711 114-333 limits assumed): as the sequence (P07711 114-333 limits assumed) above

In the case of `CC[C@H](C)[C@@H](C(=O)O[C@@H](CC(C)C)C(=O)N[C@@H](CC(C)C)C(=O)N[C@@H](C)/C=C/C(=O)N1C(=O)C=C(OC)[C@@H]1C)N(C)C` [GALLINAMIDE A], the inhibition (Procathepsin L [1]) is reported as “Active”, the Ki (Procathepsin L [2]) is reported as 9000 M⁻¹ s⁻¹ and the Ratio IC50 (Homo sapiens [3]) is reported as 320. For the same compound, the Ratio IC50 (Homo sapiens [4]) was 91, the Ratio IC50 (Homo sapiens [5]) was 28 and the Ratio IC50 (Homo sapiens [6]) was 10. For the same compound, the IC50 (Pro-cathepsin H [7]) was over 30000 nM, the IC50 (Pro-cathepsin H [8]) was over 30000 nM and the IC50 (Cathepsin B [9]) was 1700 nM. The IC50 (Cathepsin B [10]) was 4200 nM, the IC50 (Cathepsin L2 [11]) was 140 nM and the IC50 (Cathepsin L2 [12]) was 460 nM. For the same compound, the IC50 (Procathepsin L [13]) was 5 nM, the IC50 (Procathepsin L [14]) was 47 nM and the inhibition (Procathepsin L [14]; TDE = time-dependent effect) was “tde”. For the same compound, the inhibition (Procathepsin L [15]) was “Dose-dependent effect”.
